# Laboratory results from patent publication US9546401B2, “Assays and methods for selecting a treatment regimen for a subject with depression” (The General Hospital Corporation, priority 2011, dated 2017).
# Where two headings read alike, the source gives them in different places.
# Experiments:
# [1] = tested on: SSRI-resistant outpatients with major depressive disorder (MDD)
# Source text: Using the sequential parallel design […] For those randomly assigned to the placebo/placebo sequence, both responders and non-responders to placebo during the first phase (n=25) remain on placebo during the second phase. […] Data from the previous double-blind, placebo-controlled study (Trial 1) can be pooled into the instant study (Trial 2) to provide a more accurate estimate of the placebo effect size, with a weighted average from the two Phases 1 (one from Trial 1 and one from Trial 2) and two Phases 2 (one from Trial 1 and one from Trial 2).
# The primary efficacy measure can include the change in 17-item Hamilton Rating Scale for Depression (HAM-D-17) score. […] A remission is, for example, defined as a HAM-D-17 score less than 8 at endpoint. Secondary measures of efficacy can include change in CGI-severity, with “clinical response defined” as CGI-S of 1 or 2 at endpoint. Patients with a CGI-I score greater than 5 at any post baseline visit or a 50 percent or greater worsening of depressive symptoms from baseline to that visit are discontinued from the study. Subjects are also discontinued from the study with any emergence of suicidality, homicidality, mania, or psychosis. Additional exemplary instruments that can be administered according to the study schedule include the following: • (1) Structured Clinical Interview for DSM-IV: The SCID-I/P, administered by the clinician, proceeds by modules to diagnose the different Axis I disorders. Questions are asked exactly as written, and each is based on the individual criteria from DSM-IV. Answers are generally rated on a scale of 1-3 (1=doubtful, 2=probable, 3=definite), and, based on the number of positive answers, a diagnosis is determined by a clinician. While the entire SCID-I/P is administered at screen, the mood module is administered at each follow up visit. • (2) The MGH Antidepressant Treatment History Questionnaire (MGH-ATR): The MGH-ATR provides specific criteria for the adequate dose and adequate length of a trial for it to be considered a failure, thus allowing clinicians to systematically collect data aimed at assessing the degree of treatment-resistance of the current major depressive episode. • (3) The 28-item Hamilton Depression Scale (HAM-D-28): This version allows scoring of the HAM-D-17, 21-, 25-, and 28-item scales. This instrument is completed by the clinician by using a structured interview and defined anchor points, and aims to quantify the degree of depression over the past 7 days. The HAM-D is the most widely studied instrument for depression, and its reliability and validity are high. • (4) Clinical Global Impressions—Severity and Improvement (CGI-S, CGI-I): These two instruments are scored 1-7 by the clinician based on assessment of the patient's clinical status. They measure, based on history and scores on other instruments: a) Depressive severity (CGI-S) and b) Clinical Improvement (CGI-I). […] Safety Measurements
# Data are entered and error-checked at each clinical site involved in the study. Study staff and subjects may have the option to enter self-evaluations into the system directly using DatStat Illume™. The process of data entry is supervised by the DCRP staff. Once the data set is entered and checked, analyses are conducted. Both a completer analysis of all patients finishing the trial and an intent-to-treat analysis examining all patients enrolled into the trial are used to define the severity of depression at endpoint. Examination of both study completers and all patients randomized can provide the broadest assessment of the effects of treatment in trials of such kind. The data from Trial 2 can be pooled with those from Trial 1 with the sequential parallel comparison design, to provide an estimate of the placebo response based on a larger sample size. […] Let p1, q1 be the response rates to the first administration of drug and placebo respectively and let p2, q2 be the responses rates to the second treatment.
# [2] = tested on: SSRI-resistant outpatients with major depressive disorder (MDD); remark: listed apart in the source
# Protocol: Documentation of the presence of any side effect or adverse event is completed at every visit using the SAFTEE-SI. Subjects can contact a clinician at any time between visits concerning adverse events or worsening of symptoms. Suicidal ideation is assessed at each visit. Subjects who are felt by the study clinician to be at high risk for suicide are discontinued from the study and referred for hospitalization and further treatment if clinically indicated (See Tables 4 & 5 below).
# One-way analysis of variance can be used to assess differences in total number of SAFTEE-SI AEs between baseline and endpoint.
# [3] = Pooled Phase 1 and 2, 7.5 mg/day + SSRI
# [4] = Trial 2, 15 mg + SSRI, versus placebo
compound,measurement,setting,value
"CN1c2c(nc(N)[nH]c2=O)NC[C@@H]1CNc1ccc(C(=O)N[C@@H](CCC(=O)O)C(=O)O)cc1 [6(S)-5-MTHF, 6(S)-5-methyltetrahydrofolate]",efficacy as an adjunct to the SSRIs,[1]; 7.5 mg/day,not effective
same,CGI-S Mean score reduction,"[1]; Phase 1, 7.5 mg/day + SSRI",−0.5
same,HDRS-17 % Remission,"[1]; Phase 1, 7.5 mg/day + SSRI",11.1%
same,HDRS-17 % Response,"[1]; Phase 1, 7.5 mg/day + SSRI",19.4%
same,HDRS-17 Mean score reduction,"[1]; Phase 1, 7.5 mg/day + SSRI",−4.3
same,QIDS-SR % Remission,"[1]; Phase 1, 7.5 mg/day + SSRI",0.0%
same,QIDS-SR % Response,"[1]; Phase 1, 7.5 mg/day + SSRI",25.0%
same,QIDS-SR Mean score reduction,"[1]; Phase 1, 7.5 mg/day + SSRI",−4.6
same,CGI-S Mean score reduction,"[1]; Phase 2, 7.5 mg/day + SSRI",−0.5
same,HDRS-17 % Remission,"[1]; Phase 2, 7.5 mg/day + SSRI",14.2%
same,HDRS-17 % Response,"[1]; Phase 2, 7.5 mg/day + SSRI",17.1%
same,HDRS-17 Mean score reduction,"[1]; Phase 2, 7.5 mg/day + SSRI",−3.1
same,QIDS-SR % Remission,"[1]; Phase 2, 7.5 mg/day + SSRI",8.5%
same,QIDS-SR % Response,"[1]; Phase 2, 7.5 mg/day + SSRI",8.5%
same,QIDS-SR Mean score reduction,"[1]; Phase 2, 7.5 mg/day + SSRI",−1.9
same,CGI-S Mean score reduction,[1]; [3],−0.53
same,HDRS-17 % Remission,[1]; [3],12.7%
same,HDRS-17 % Response,[1]; [3],18.3%
same,HDRS-17 Mean score reduction,[1]; [3],−3.70
same,QIDS-SR % Remission,[1]; [3],4.3%
same,QIDS-SR % Response,[1]; [3],16.8%
same,QIDS-SR Mean score reduction,[1]; [3],−3.25
same,increase in response and remission rate versus placebo with the SSRIs,"[1]; Trial 1, 15 mg/day in second phase",at least 2 fold
same,response and remission rate,"[1]; Trial 1, drug/drug sequence, dose increased to 15 mg/day in second phase, placebo 9%, p=0.1",24%
same,number of adverse events (SAFTEE-SI),[2]; SSRI + 15 mg/day versus SSRI + placebo,no significant differences in the number of adverse events
same,discontinuation due to overall adverse side-effects or exclusion events,[2]; Trial 2,no difference in discontinuation
same,"Cardiovascular side effects, Frequency","[2]; Trial 2, 15 mg + SSRI, n = 42",0
same,"Cardiovascular side effects, Frequency (%)","[2]; Trial 2, 15 mg + SSRI, n = 42",(0%)
same,"Gastrointestinal side effects, Frequency","[2]; Trial 2, 15 mg + SSRI, n = 42",7
same,"Gastrointestinal side effects, Frequency (%)","[2]; Trial 2, 15 mg + SSRI, n = 42",(16.7%)
same,"Infectious side effects, Frequency","[2]; Trial 2, 15 mg + SSRI, n = 42",5
same,"Infectious side effects, Frequency (%)","[2]; Trial 2, 15 mg + SSRI, n = 42",(11.9%)
same,"Miscellaneous side effects, Frequency","[2]; Trial 2, 15 mg + SSRI, n = 42",1
same,"Miscellaneous side effects, Frequency (%)","[2]; Trial 2, 15 mg + SSRI, n = 42",(2.4%)
same,"Psychological side effects, Frequency","[2]; Trial 2, 15 mg + SSRI, n = 42",4
same,"Psychological side effects, Frequency (%)","[2]; Trial 2, 15 mg + SSRI, n = 42",(9.5%)
same,"Sexual side effects, Frequency","[2]; Trial 2, 15 mg + SSRI, n = 42",1
same,"Sexual side effects, Frequency (%)","[2]; Trial 2, 15 mg + SSRI, n = 42",(2.4%)
same,"Sleep side effects, Frequency","[2]; Trial 2, 15 mg + SSRI, n = 42",1
same,"Sleep side effects, Frequency (%)","[2]; Trial 2, 15 mg + SSRI, n = 42",(2.4%)
same,"Somatic side effects, Frequency","[2]; Trial 2, 15 mg + SSRI, n = 42",6
same,"Somatic side effects, Frequency (%)","[2]; Trial 2, 15 mg + SSRI, n = 42",(14.3%)
same,"Cardiovascular side effects, NNH",[2]; [4],=placebo
same,"Gastrointestinal side effects, NNH",[2]; [4],53
same,"Infectious side effects, NNH",[2]; [4],<placebo
same,"Miscellaneous side effects, NNH",[2]; [4],<placebo
same,"Psychological side effects, NNH",[2]; [4],<placebo
same,"Sexual side effects, NNH",[2]; [4],98
same,"Sleep side effects, NNH",[2]; [4],<placebo
same,"Somatic side effects, NNH",[2]; [4],<placebo
